Laboratory results: US12472272B2, “Radiolabelled compounds for diagnosis or treatment of prostate-specific membrane antigen- expressing cancer” (PROVINCIAL HEALTH SERVICES AUTHORITY, priority 2019, dated 2025)
“Also recorded” adds a separate entry of the source.

What was measured:
[1] = system: PSMA-expressing cancer xenografts (LNCaP); experiment: Biodistribution of ^177Lu-labeled HTK03041; format: in vivo, mice; conditions: for Tissue (% ID/g): Salivary / Tissue (% ID/g): Seminal / Tissue (% ID/g): Spleen / Tissue (% ID/g): Stomach / Tissue (% ID/g): Tail / Tissue (% ID/g): Testes / Tissue (% ID/g): Thyroid / Tissue (% ID/g): Tumor / Tissue (% ID/g): Urine / tumor-to-background contrast ratio Tumor: Blood / tumor-to-background contrast ratio Tumor: Muscle / tumor-to-background contrast ratio Tumor: kidney / Tissue (% ID/g): Adrenal glands / Tissue (% ID/g): Blood / Tissue (% ID/g): Bone / Tissue (% ID/g): Brain / Tissue (% ID/g): Fat / Tissue (% ID/g): Heart / Tissue (% ID/g): Intestine / Tissue (% ID/g): Kidneys / Tissue (% ID/g): Lacrimal / Tissue (% ID/g): Liver / Tissue (% ID/g): Lungs / Tissue (% ID/g): Muscle / Tissue (% ID/g): Pancreas: ^177Lu
Description: (§1) Imaging and biodistribution experiments were performed using NODSCID 1L2RγKO male mice. Mice were anesthetized by inhalation with 2% isoflurane in oxygen, and implanted subcutaneously with 1×10^7 LNCaP cells behind left shoulder. Mice were imaged or used in biodistribution studies when the tumor grew up to reach 5-8 mm in diameter during 5-6 weeks.
(§2) SPECT/CT imaging experiments were conducted using the MlLabs (Utrecht, the Netherlands) U-SPECT-II/CT scanner. Each tumor bearing mouse was injected with ˜37 MBq of ^177Lu-labeled HTK03041 through the tail vein under anesthesia (2% isoflurane in oxygen). The mice were allowed to recover and roam freely in their cage and imaged at 1, 4, 24, 72 and 120 hours after injection. At each time point, the mice were sedated again and positioned in the scanner. A 5-min CT scan was conducted first for anatomical reference with a voltage setting at 60 kV and current at 615 μA followed by a 60-min static emission scan acquired in list mode using an ultra-high resolution multi-pinhole rat-mouse (1 mm pinhole size) collimator. Data were reconstructed using the U-SPECT II software with a 20% window width on three energy windows. The photopeak window was centered at 208 keV, with lower scatter and upper scatter windows centered at 170 and 255 keV, respectively. Reconstruction parameters used maximum-likelihood expectation maximization (3 iterations), pixel-based ordered subset expectation maximization (16 subsets), and a post-processing filter (Gaussian blurring) of 0.5 mm. Images were decay corrected to injection time in PMOD (PMOD Technologies, Switzerland) then converted to DICOM for qualitative visualization in Inveon Research Workplace (Siemens Medical Solutions USA, Inc.).
For biodistribution studies, the mice were injected with the radiotracer as described above. At predetermined time points (1 or 3 h for ^68Ga studies; 1, 4, 24, 72, or 120 h for ^177Lu studies), the mice was anesthetized with 2% isoflurane inhalation, and euthanized by CO2 inhalation. Blood was withdrawn immediately from the heart, and the organs/tissues of interest were collected. The collected organs/tissues were weighed and counted using a Perkin Elmer (Waltham, MA) Wizard2 2480 gamma counter. The uptake in each organ/tissue was normalized to the injected dose using a standard curve, and expressed as the percentage of the injected dose per gram of tissue (% ID/g).

LNCaP tumors = experiment: SPECT/CT imaging of ^177Lu-labeled HTK03041; format: in vivo, mice; conditions: 1 h to 120 h post-injection, FIG. 4
Description: as §1
as §2, with “Reconstruction parameters used maximum-likelihood expectation maximization (3 iterations), pixel-based ordered subset expectation maximization (16 subsets), and a post-processing filter (Gaussian blurring) of 0.5 mm. Images were decay corrected to injection time in PMOD (PMOD Technologies, Switzerland) then converted to DICOM for qualitative visualization in Inveon Research Workplace (Siemens Medical Solutions USA, Inc.).” left out

SMILES: O=C([O-])CN1CCN(CC(=O)[O-])CCN(CC(=O)NC[C@H]2CC[C@H](C(=O)N[C@@H](Cc3c4ccccc4cc4ccccc34)C(=O)NCCCC[C@H](NC(=O)N[C@@H](CCC(=O)O)C(=O)O)C(=O)O)CC2)CCN(CC(=O)[O-])CC1.[177Lu+3] [^177Lu-HTK03041]
- Tissue (% ID/g): Salivary ([1]; 24 h post-injection): 0.40 ± 0.06 % ID/g
- Tissue (% ID/g): Seminal ([1]; 24 h post-injection): 0.23 ± 0.13 % ID/g
- Tissue (% ID/g): Spleen ([1]; 24 h post-injection): 0.59 ± 0.19 % ID/g
- Tissue (% ID/g): Stomach ([1]; 24 h post-injection): 0.18 ± 0.04 % ID/g
- Tissue (% ID/g): Tail ([1]; 24 h post-injection): 0.34 ± 0.17 % ID/g
- Tissue (% ID/g): Testes ([1]; 24 h post-injection): 0.40 ± 0.08 % ID/g
- Tissue (% ID/g): Thyroid ([1]; 24 h post-injection): 0.47 ± 0.09 % ID/g
- Tissue (% ID/g): Tumor ([1]; 24 h post-injection): 19.8 ± 6.13 % ID/g
- Tissue (% ID/g): Urine ([1]; 24 h post-injection): 23.8 ± 8.50 % ID/g
- tumor-to-background contrast ratio Tumor: Blood ([1]; 24 h post-injection): 282 ± 82.6
- tumor-to-background contrast ratio Tumor: Muscle ([1]; 24 h post-injection): 142 ± 30.1
- tumor-to-background contrast ratio Tumor: kidney ([1]; 24 h post-injection): 0.97 ± 0.15
- Tissue (% ID/g): Adrenal glands ([1]; 72 h post-injection): 0.12 ± 0.05 % ID/g
- Tissue (% ID/g): Blood ([1]; 72 h post-injection): 0.02 ± 0.00 % ID/g
- Tissue (% ID/g): Bone ([1]; 72 h post-injection): 0.02 ± 0.01 % ID/g
- Tissue (% ID/g): Brain ([1]; 72 h post-injection): 0.01 ± 0.00 % ID/g
- Tissue (% ID/g): Fat ([1]; 72 h post-injection): 0.03 ± 0.01 % ID/g
- Tissue (% ID/g): Heart ([1]; 72 h post-injection): 0.07 ± 0.02 % ID/g
- Tissue (% ID/g): Intestine ([1]; 72 h post-injection): 0.13 ± 0.04 % ID/g
- Tissue (% ID/g): Kidneys ([1]; 72 h post-injection): 1.27 ± 0.58 % ID/g
- Tissue (% ID/g): Lacrimal ([1]; 72 h post-injection): 0.01 ± 0.01 % ID/g
- Tissue (% ID/g): Liver ([1]; 72 h post-injection): 0.13 ± 0.05 % ID/g
- Tissue (% ID/g): Lungs ([1]; 72 h post-injection): 0.14 ± 0.04 % ID/g
- Tissue (% ID/g): Muscle ([1]; 72 h post-injection): 0.02 ± 0.01 % ID/g
- Tissue (% ID/g): Pancreas ([1]; 72 h post-injection): 0.05 ± 0.02 % ID/g
- Tissue (% ID/g): Salivary ([1]; 72 h post-injection): 0.08 ± 0.03 % ID/g
- Tissue (% ID/g): Seminal ([1]; 72 h post-injection): 0.03 ± 0.01 % ID/g
- Tissue (% ID/g): Spleen ([1]; 72 h post-injection): 0.12 ± 0.04 % ID/g
- Tissue (% ID/g): Stomach ([1]; 72 h post-injection): 0.19 ± 0.09 % ID/g
- Tissue (% ID/g): Tail ([1]; 72 h post-injection): 0.13 ± 0.08 % ID/g
- Tissue (% ID/g): Testes ([1]; 72 h post-injection): 0.08 ± 0.02 % ID/g
- Tissue (% ID/g): Thyroid ([1]; 72 h post-injection): 0.09 ± 0.02 % ID/g
- Tissue (% ID/g): Tumor ([1]; 72 h post-injection): 15.2 ± 4.72 % ID/g
- Tissue (% ID/g): Urine ([1]; 72 h post-injection): 0.67 ± 0.22 % ID/g
- tumor-to-background contrast ratio Tumor: Blood ([1]; 72 h post-injection): 805 ± 164
- tumor-to-background contrast ratio Tumor: Muscle ([1]; 72 h post-injection): 647 ± 119
- tumor-to-background contrast ratio Tumor: kidney ([1]; 72 h post-injection): 13.1 ± 3.75
- Tissue (% ID/g): Adrenal glands ([1]; 120 h post-injection): 0.11 ± 0.11 % ID/g
- Tissue (% ID/g): Blood ([1]; 120 h post-injection): 0.01 ± 0.01 % ID/g
- Tissue (% ID/g): Bone ([1]; 120 h post-injection): 0.02 ± 0.00 % ID/g
- Tissue (% ID/g): Brain ([1]; 120 h post-injection): 0.01 ± 0.00 % ID/g
- Tissue (% ID/g): Fat ([1]; 120 h post-injection): 0.05 ± 0.09 % ID/g
- Tissue (% ID/g): Heart ([1]; 120 h post-injection): 0.06 ± 0.02 % ID/g
- Tissue (% ID/g): Intestine ([1]; 120 h post-injection): 0.06 ± 0.03 % ID/g
- Tissue (% ID/g): Kidneys ([1]; 120 h post-injection): 1.06 ± 0.74 % ID/g
- Tissue (% ID/g): Lacrimal ([1]; 120 h post-injection): 0.01 ± 0.01 % ID/g
- Tissue (% ID/g): Liver ([1]; 120 h post-injection): 0.13 ± 0.04 % ID/g
- Tissue (% ID/g): Lungs ([1]; 120 h post-injection): 0.10 ± 0.04 % ID/g
- Tissue (% ID/g): Muscle ([1]; 120 h post-injection): 0.02 ± 0.02 % ID/g
- Tissue (% ID/g): Pancreas ([1]; 120 h post-injection): 0.04 ± 0.01 % ID/g
- Tissue (% ID/g): Salivary ([1]; 120 h post-injection): 0.06 ± 0.04 % ID/g
- Tissue (% ID/g): Seminal ([1]; 120 h post-injection): 0.02 ± 0.01 % ID/g
- Tissue (% ID/g): Spleen ([1]; 120 h post-injection): 0.22 ± 0.11 % ID/g
- Tissue (% ID/g): Stomach ([1]; 120 h post-injection): 0.05 ± 0.04 % ID/g
- Tissue (% ID/g): Tail ([1]; 120 h post-injection): 0.11 ± 0.07 % ID/g
- Tissue (% ID/g): Testes ([1]; 120 h post-injection): 0.06 ± 0.01 % ID/g
- Tissue (% ID/g): Thyroid ([1]; 120 h post-injection): 0.08 ± 0.03 % ID/g
- Tissue (% ID/g): Tumor ([1]; 120 h post-injection): 22.3 ± 6.90 % ID/g
- Tissue (% ID/g): Urine ([1]; 120 h post-injection): 0.29 ± 0.04 % ID/g
- tumor-to-background contrast ratio Tumor: Blood ([1]; 120 h post-injection): 1670 ± 272
- tumor-to-background contrast ratio Tumor: Muscle ([1]; 120 h post-injection): 1215 ± 512
- tumor-to-background contrast ratio Tumor: kidney ([1]; 120 h post-injection): 25.4 ± 9.59
- tumor uptake over the investigated time points ([1]; up to 120 h post-injection): remained at the similar level throughout the investigated time points; also recorded: sustained over the course of the study
- uptake in background tissues including kidneys in SPECT images (LNCaP tumors): cleared quickly over time
- uptake in tumor in SPECT images (LNCaP tumors): sustained over the course the study
